We go through six molecules from ChEMBL document CHEMBL3886567, “Fused tricyclic compounds as Raf kinase inhibitors” (2016).

The target in assay [1] is RAF proto-oncogene serine/threonine-protein kinase (Homo sapiens, UniProt P04049, Y340D/Y341D). Put plainly: (§1) Raf IC50 Assay: Compounds disclosed herein were tested against B-Raf (V600E) (PV3849, from Invitrogen) or C-Raf (Y340D/Y341D) (PV3805, from Invitrogen) in a time-resolved fluorescence energy transfer assay. The assay was carried out in reactions (10 uL) containing 0.0625 nM B-Raf or 0.5 nM C-Raf, 25 mM Tris pH7.4, 10 mM MgCl2, 0.5 mM EGTA, 0.5 mM […], 5 mM beta-glycerophosphate, 0.01% Triton X-100, 2.5 mM DTT, 0.1% BSA, 0.1 mM ATP, 13.7 nM GST-tagged MEK1 (Full-length protein with K97R mutation, recombinant protein purified from bacterial expression system) and 0-5 uM compounds disclosed herein (final concentration of 1% DMSO). The enzyme was incubated with the compounds at room temperature for 60 minutes and the reactions were initiated by the addition of ATP and GST-MEK1. After incubating at room temperature for 60 minutes, an equal volume of stop buffer containing 25 mM Tris pH7.4, 400 mM KF, 50 mM EDTA, 0.01% BSA, 0.01% Triton X-100, 1 test of Eu3+ Cryptate-conjugated rabbit polyclonal antibody anti-Phospho MEK1/2 (Ser217/221) and 1 test of d2-conjugated mouse monoclonal antibody anti-glutathione S-transferase was added to stop the reactions. Plates were sealed and incubated at room temperature for 2 hours, and then the TR-FRET signals were read on BMG PHERAstar FS instrument. The IC50 for each compound was calculated by non linear regression by Graphpad Prism software.

The target in assay [2] is Serine/threonine-protein kinase B-raf (Homo sapiens, UniProt P15056, V600E). Described as §1.

SMILES strings stand for the structures.

Serine/threonine-protein kinase B-raf, sequence (P15056 2-766 V600E limits assumed): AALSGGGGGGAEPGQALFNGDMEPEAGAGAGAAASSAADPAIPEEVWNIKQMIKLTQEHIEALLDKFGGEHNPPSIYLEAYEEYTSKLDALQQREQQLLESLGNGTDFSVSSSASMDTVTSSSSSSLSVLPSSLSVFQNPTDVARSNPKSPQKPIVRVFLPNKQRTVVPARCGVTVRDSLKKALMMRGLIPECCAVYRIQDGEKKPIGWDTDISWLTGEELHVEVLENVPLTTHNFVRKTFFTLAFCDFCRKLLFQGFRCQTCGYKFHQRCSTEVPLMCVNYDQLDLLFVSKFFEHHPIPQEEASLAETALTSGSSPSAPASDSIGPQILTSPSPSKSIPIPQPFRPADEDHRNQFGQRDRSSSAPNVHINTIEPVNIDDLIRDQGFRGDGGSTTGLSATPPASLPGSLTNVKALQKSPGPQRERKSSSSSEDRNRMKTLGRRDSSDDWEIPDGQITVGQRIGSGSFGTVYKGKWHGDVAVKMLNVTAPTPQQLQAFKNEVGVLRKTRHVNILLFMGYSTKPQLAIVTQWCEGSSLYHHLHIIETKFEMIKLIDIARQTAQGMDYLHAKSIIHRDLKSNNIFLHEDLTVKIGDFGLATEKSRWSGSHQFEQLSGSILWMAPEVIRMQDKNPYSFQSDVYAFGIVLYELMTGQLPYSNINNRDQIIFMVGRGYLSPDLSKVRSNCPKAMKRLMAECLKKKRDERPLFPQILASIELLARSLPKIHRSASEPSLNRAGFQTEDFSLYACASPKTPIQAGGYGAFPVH
RAF proto-oncogene serine/threonine-protein kinase, sequence (P04049 whole entry Y340D/Y341D): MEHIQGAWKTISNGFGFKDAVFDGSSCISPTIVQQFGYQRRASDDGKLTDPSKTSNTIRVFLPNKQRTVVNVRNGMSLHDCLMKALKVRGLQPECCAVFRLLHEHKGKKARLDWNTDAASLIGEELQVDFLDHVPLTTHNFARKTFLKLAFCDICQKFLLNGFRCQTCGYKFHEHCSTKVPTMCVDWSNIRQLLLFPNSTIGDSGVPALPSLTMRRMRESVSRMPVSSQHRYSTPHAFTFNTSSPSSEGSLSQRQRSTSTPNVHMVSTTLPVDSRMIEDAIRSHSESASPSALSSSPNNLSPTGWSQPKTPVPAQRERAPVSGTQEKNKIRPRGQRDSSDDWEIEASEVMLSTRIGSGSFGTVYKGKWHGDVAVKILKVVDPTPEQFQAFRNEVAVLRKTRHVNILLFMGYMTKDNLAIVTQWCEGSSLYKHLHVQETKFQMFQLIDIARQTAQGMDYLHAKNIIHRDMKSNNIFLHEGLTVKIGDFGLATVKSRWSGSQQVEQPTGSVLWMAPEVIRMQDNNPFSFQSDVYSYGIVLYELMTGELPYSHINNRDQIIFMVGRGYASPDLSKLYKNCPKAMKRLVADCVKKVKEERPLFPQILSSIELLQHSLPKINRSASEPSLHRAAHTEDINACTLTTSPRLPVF

Turning to `O=C1CCc2c(Oc3ccc4c(c3)C3C(O4)C3c3nc4ccc(-c5ccccc5)cc4[nH]3)ccnc2N1` (racemic), the values for the half-inhibitory concentration (IC50) in assay [1] and in assay [2] were 81 nM and 232 nM, respectively.

As to `O=C1CCc2c(Oc3ccc4c(c3)C3C(O4)C3c3nc4ccc(C(F)(F)F)cc4[nH]3)ccnc2N1` (racemic), the IC50 in assay [1] is 1.4 nM; in assay [2] it was 7.2 nM. For `O=C1CCc2c(Oc3ccc4c(c3)C3C(O4)C3c3nc4cccc(Cl)c4[nH]3)ccnc2N1` (racemic) the same measures were under 0.25 nM and 16 nM.

Consider `O=C1CCc2c(Oc3ccc4c(c3)C3C(O4)C3c3nc4cc(Cl)c(C(F)(F)F)cc4[nH]3)ccnc2N1` (racemic), for which the IC50 in assay [1] was 5 nM. `O=C1CCc2c(Oc3ccc4c(c3)C3C(C4)C3c3nc4ccc(C(F)(F)F)cc4[nH]3)ccnc2N1` (racemic): the IC50 in assay [1] was 12 nM; in assay [2], 72 nM.

For the molecule `O=C1CCc2c(ncc(Cl)c2Oc2ccc3c(c2)C2C(O3)C2c2nc3ccc(C(F)(F)F)cc3[nH]2)N1` (racemic), the concentration for half-maximal inhibition (IC50) in assay [1] was 432 nM; in assay [2], over 1000 nM.
